# Source: US20100130544A1, “USE OF PARASYM[…] ENHANCE AND […] CELL DIFFERENTIATION, RELATED METHODS AND COMPOSITIONS” (UNIVERSITA' DEGLI STUDI DI TORINO, priority 2006, published 2010)
# Assays:
# THP-1 cells (PSC-THP1) = test: Phenotypic analysis (Western blotting, immunofluorescence) of PSC-THP1 stimulated towards hepatocytic type + parasympatholytic; assay type: cell-based, human; parameters: key to expression of CD34: −−−−− = absence of any fluorescence; + = 1-5 fluorescent cells per optical field; ++ = 6-10 fluorescent cells per optical field; +++ = 10-20 fluorescent cells per optical field; ++++ = 20-50 fluorescent cells per optical field; +++++ > 50 fluorescent cells per optical field; details: PSC-THP1 Hepatocytic type + parasympath. (HGF medium + 0.2 μg/mL scopolamine)
# Experimental: (§1) Furthermore, samples of the same cells, taken every seventh day of incubation, have been incubated for 5-8 minutes with 2% lidocaine (Sigma Aldrich, Milan, Italy) in PBS and the solution thus obtained harvested, as described in the bibliography.
# (§2) Western blotting first makes use of denaturing electrophoresis (SDS-PAGE) in order to separate the various proteins according to molecular weight, by cancelling out the charges on the amino acids which might influence migration. The cell samples, suspended in lysis buffer (1% SDS, 30 mM Tris pH 6.8, 5% glycerol) to which protease inhibitors (Protease Inhibitor Cocktail, Calbiochem, San Diego, Calif., USA) have been added, have been incubated for 30 minutes at 4° C. The lysates thus obtained have been centrifuged at 12,000 rpm for 20 minutes at 4° C. and the supernatants collected; the protein concentrations of the samples have been measured using the Bio-Rad method (Benchmark Plus assay, Bio-Rad). Prior to electrophoresis, the samples have been boiled for 5 minutes in the presence of beta-mercaptoethanol and bromophenol blue. The samples have been subjected to electrophoresis on a 12% gel (SDS-PAGE) and then transferred onto a PVDF membrane (Perkin Elmer Inc.). The membranes have been saturated with […] at room temperature and subsequently incubated overnight, at 4° C., with the following primary antibodies diluted 1:500 in PBS with 5% skimmed milk powder: anti-CD 34 (Santa Cruz Biotechnology, CA, USA), anti-CD 14 (Santa Cruz Biotechnology, CA, USA), anti-CD 45 (Santa Cruz Biotechnology, CA, USA), anti-CD 71 (Santa Cruz Biotechnology, CA, USA), anti-CD 90 (Santa Cruz Biotechnology, CA, USA), anti-CD 29 (Santa Cruz Biotechnology, CA, USA), anti-CD 105 (Santa Cruz Biotechnology, CA, USA), anti CD 117/c-KIT (Santa Cruz Biotechnology, CA, USA), anti c-MET (Santa Cruz Biotechnology, CA, USA), anti cytokeratin 7 (Santa Cruz Biotechnology, CA, USA), anti cytokeratin 8 (Santa Cruz Biotechnology, CA, USA), anti cytokeratin 18 (Santa Cruz Biotechnology, CA, USA), anti cytokeratin 19 (Santa Cruz Biotechnology, CA, USA), anti cytokeratin 7/17 (Santa Cruz Biotechnology, CA, USA), anti albumin (Rockland Immunochemicals, PA, USA), anti alpha-fetoprotein (Monosan Europa, Netherlands). After five washes, the membranes have been incubated with the corresponding secondary antibodies (1:1000) conjugated to horseradish peroxidase (HRP, SantaCruz Biotechnologies Inc., Santa Cruz, Calif., USA) for 1 hour at room temperature.
# (§3) Cells in suspension have been incubated with […] MitoTracker Red for 10 minutes at 37° C. […] After three washes in PBS, the cells have been resuspended in a solution of PBS and 0.1% Triton for 1 hour at 4° C. After three washes in PBS, the cells have been seeded onto slide covers and the liquid allowed to evaporate-off in air. The cells have been blocked with 20% normal goat serum for one hour, then incubated for 30 minutes with the following fluorescein isothiocyanate (FITC) conjugated anti-human monoclonal antibodies: anti-CD 34 (Santa Cruz Biotechnology, CA, USA), anti-CD 14 (Santa Cruz Biotechnology, CA, USA), anti-CD 45 (Santa Cruz Biotechnology, CA, USA), anti-CD 71 (Santa Cruz Biotechnology, CA, USA), anti-CD 90 (Santa Cruz Biotechnology, CA, USA), anti-CD 29 (Santa Cruz Biotechnology, CA, USA), anti-CD 105 (Santa Cruz Biotechnology, CA, USA), anti CD 117/c-KIT (Santa Cruz Biotechnology, CA, USA), anti c-KIT (Santa Cruz Biotechnology, CA, USA), anti c-MET (Santa Cruz Biotechnology, CA, USA), anti cytokeratin 7 (Santa Cruz Biotechnology, CA, USA), anti cytokeratin 8 (Santa Cruz Biotechnology, CA, USA), anti cytokeratin 18 (Santa Cruz Biotechnology, CA, USA), anti cytokeratin 19 (Santa Cruz Biotechnology, CA, USA), anti cytokeratin 7/17 (Santa Cruz Biotechnology, CA, USA), anti albumin (Rockland Immunochemicals, PA, USA), anti alpha-fetoprotein (Monosan Europa, Netherlands). […]
# [1] = test system: peripheral blood monocytes; test: Phenotypic analysis (Western blotting, immunofluorescence) of monocytes stimulated towards hepatocytic type + parasympatholytic; assay type: cell-based, human; parameters: key to expression of CD34: −−−−− = absence of any fluorescence; + = 1-5 fluorescent cells per optical field; ++ = 6-10 fluorescent cells per optical field; +++ = 10-20 fluorescent cells per optical field; ++++ = 20-50 fluorescent cells per optical field; +++++ > 50 fluorescent cells per optical field; details: monocytes Hepatocytic type + parasympath. (HGF medium + 0.2 μg/mL scopolamine)
# Experimental: as §1, §2, §3
# Synovial cells (SynCs) = test: Phenotypic analysis (Western blotting, immunofluorescence) of synovial cells stimulated towards hepatocytic type + parasympatholytic; assay type: cell-based, human; details: Synovial cells Hepatocytic type + parasympath. (HGF medium + 0.2 μg/mL scopolamine)
# Experimental: Synovial cells (SynCs) have been obtained from patients during exeresis and curettage of the synovial membrane inside the femoral-tibial joint cavity. Fresh synovial tissue sections have been disaggregated in collagenase (10 μg per mL of medium, Sigma) for two hours at 37° C. The pellet, washed twice in DMEM-LG (Gibco; Grand Island, N.Y., USA), free of any supplements, by centrifugation at 160 g for 10 minutes and then resuspended in complete low-glucose Dulbecco's modified Eagle's medium ([DMEM-LG] GIBCO; Grand Island, N.Y., USA) supplemented with 10% foetal bovine serum ([FBS] Sigma), 10 U/mL penicillin G, and 40 μg/mL gentamycin, is finally seeded into 75 cm^2 flasks and incubated in 5% CO2 at a temperature of 37° C. After 24 hours, the medium, along with any cells still in suspension, has been aspirated off and fresh medium (DMEM-LG, Gibco; Grand Island, N.Y., USA, supplemented with 10% FBS, Sigma, 10 U/mL penicillin G, and 40 μg/mL gentamycin) has been added over the adhered cells. The cells have been grown in 75 cm^2 flasks in an incubator with 5% CO2 at a temperature of 37° C. When the cells reach 80% confluence, they are detached using trypsin-EDTA (5 minutes incubation at 37° C. followed by the addition of 5 mL of pure FBS, and the detached cells in suspension are harvested), washed twice by centrifugation at 160 g for 7 minutes at 37° C. in DMEM-LG medium (Gibco; Grand Island, N.Y., USA) free of any supplements. The cells in the pellets thus obtained are resuspended at a concentration of 1×10^6 in fresh DMEM-LG medium (Gibco; Grand Island, N.Y., USA) supplemented with 10% foetal bovine serum ([FBS] Sigma), 10 U/mL penicillin G, and 40 μg/mL gentamycin. The cells have been reseeded after 1:4 dilution (final concentration 2.5×10^4). In this study, cells after the second passage in continuous culture have been used.
# As described above in detail, every seventh day of incubation samples of all confluent MSC and SynC cells have been subjected to immunofluorescence testing of samples adhered onto sell culture slides. […]
# Western blotting first makes use of denaturing electrophoresis (SDS-PAGE) in order to separate the various proteins according to molecular weight, by cancelling out the charges on the amino acids which might influence migration. […] The lysates thus obtained have been centrifuged at 12,000 rpm for 20 minutes at 4° C. and the supernatants collected; the protein concentrations of the samples have been measured using the Bio-Rad method (Benchmark Plus assay, Bio-Rad). […]
# [2] = test system: Human mesenchymal pluripotent stem cells (MSCs); test: Phenotypic analysis (Western blotting, immunofluorescence) of mesenchymal cells stimulated towards hepatocytic type + parasympatholytic; assay type: cell-based; details: Mesenchymal cells Hepatocytic type + parasympath. (HGF medium + 0.2 μg/mL scopolamine)
# Source text: Human mesenchymal pluripotent stem cells (MSCs, mesenchymal Stem Cells) have been extracted from samples of bone marrow (BM) taken from the femoral head (spongy tissue and bone marrow) during complete hip-replacement surgery. The nucleated cells have been separated by means of a density gradient (Ficoll-Paque, Amersham) and resuspended in low-glucose Dulbecco's modified Eagle's medium (DMEM-LG, Gibco, Grand Island, N.Y., USA) supplemented with 10% foetal bovine serum (FBS, Sigma), 10 U/mL penicillin G, and 40 μg/mL gentamycin. After 24 hours in culture, the medium, along with any cells in suspension, has been removed by aspiration and fresh medium added onto the adhered cells. The cells have been grown in 75 cm^2 flasks in an incubator with 5% CO2 at a temperature of 37° C. When the cells reach 80% confluence, they are detached using trypsin-EDTA (5 minutes incubation at 37° C. followed by the addition of 5 mL of pure FBS, and the detached cells in suspension are harvested), washed twice by centrifugation at 160 g for 7 minutes at 37° C. in DMEM-LG medium (Gibco; Grand Island, N.Y., USA) free of any supplements. The cells in the pellets thus obtained are resuspended at a concentration of 1×10^6 in fresh DMEM-LG medium (Gibco; Grand Island, N.Y., USA) supplemented with 10% foetal bovine serum (FBS, Sigma), 10 U/mL penicillin G, and 40 μg/mL gentamycin. The cells are reseeded after 1:4 dilution (final concentration 2.5×10^4). In this study, cells after the third passage in continuous culture have been used.
# As described above in detail, every seventh day of incubation samples of all confluent MSC and SynC cells have been subjected to immunofluorescence testing of samples adhered onto sell culture slides.
# Furthermore, every seventh day of incubation, samples of the same cells have been detached using trypsin-EDTA (5 minutes at a temperature of 37° C. followed by the addition of 5 mL of pure FBS and the detached cells in suspension harvested) and washed twice by centrifugation at 160 g for 7 minutes at 37° C. in DMEM-LG (Gibco; Grand Island, N.Y., USA) without any supplements.
# Western blotting first makes use of denaturing electrophoresis (SDS-PAGE) in order to separate the various proteins according to molecular weight, by cancelling out the charges on the amino acids which might influence migration. The cell samples, suspended in lysis buffer (1% SDS, 30 mM Tris pH 6.8, 5% glycerol) to which protease inhibitors (Protease Inhibitor Cocktail, Calbiochem, San Diego, Calif., USA) have been added, have been incubated for 30 minutes at 4° C. The lysates thus obtained have been centrifuged at 12,000 rpm for 20 minutes at 4° C. and the supernatants collected; the protein concentrations of the samples have been measured using the Bio-Rad method (Benchmark Plus assay, Bio-Rad). Prior to electrophoresis, the samples have been boiled for 5 minutes in the presence of beta-mercaptoethanol and bromophenol blue. The samples have been subjected to electrophoresis on a 12% gel (SDS-PAGE) and then transferred onto a PVDF membrane (Perkin Elmer Inc.). […]
smiles,measurement,setting,value
"CN1[C@@H]2C[C@@H](OC(=O)[C@H](CO)c3ccccc3)C[C@H]1[C@@H]1O[C@@H]12 [scopolamine, [7(S)-(1α,2β,4β,5α,7β)]-α-(hydroxymethyl)acid benzenacetic-9-methyl-3-oxa-9-azatricyclo[3.3.1.02,4]non-7-yl-ester]",expression of CD14,THP-1 cells (PSC-THP1),+ (+ = 1-5 fluorescent cells per optical field)
same,expression of CD34,THP-1 cells (PSC-THP1),−−−−−
same,expression of Cytokeratin 7,THP-1 cells (PSC-THP1),+++++ (+++++ > 50 fluorescent cells per optical field)
same,expression of Cytokeratin 8,THP-1 cells (PSC-THP1),++++ (++++ = 20-50 fluorescent cells per optical field)
same,expression of Cytokeratin 18,THP-1 cells (PSC-THP1),+++ (+++ = 10-20 fluorescent cells per optical field)
same,expression of Cytokeratin 19,THP-1 cells (PSC-THP1),+++++ (+++++ > 50 fluorescent cells per optical field)
same,expression of Cytokeratins 7/17,THP-1 cells (PSC-THP1),++++ (++++ = 20-50 fluorescent cells per optical field)
same,expression of Human albumin,THP-1 cells (PSC-THP1),+++++ (+++++ > 50 fluorescent cells per optical field)
same,expression of alpha-fetoprotein,THP-1 cells (PSC-THP1),++ (++ = 6-10 fluorescent cells per optical field)
same,expression of c-KIT,THP-1 cells (PSC-THP1),+ (+ = 1-5 fluorescent cells per optical field)
same,expression of c-Met,THP-1 cells (PSC-THP1),++ (++ = 6-10 fluorescent cells per optical field)
same,expression of CD14,[1],+ (+ = 1-5 fluorescent cells per optical field)
same,expression of CD34,[1],−−−−−
same,expression of Cytokeratin 7,[1],+++++ (+++++ > 50 fluorescent cells per optical field)
same,expression of Cytokeratin 8,[1],++++ (++++ = 20-50 fluorescent cells per optical field)
same,expression of Cytokeratin 18,[1],+++ (+++ = 10-20 fluorescent cells per optical field)
same,expression of Cytokeratin 19,[1],+++++ (+++++ > 50 fluorescent cells per optical field)
same,expression of Cytokeratins 7/17,[1],++++ (++++ = 20-50 fluorescent cells per optical field)
same,expression of Human albumin,[1],+++++ (+++++ > 50 fluorescent cells per optical field)
same,expression of alpha-fetoprotein,[1],++ (++ = 6-10 fluorescent cells per optical field)
same,expression of c-KIT,[1],+ (+ = 1-5 fluorescent cells per optical field)
same,expression of c-Met,[1],++ (++ = 6-10 fluorescent cells per optical field)
same,expression of CD71,Synovial cells (SynCs),++ (++ = 6-10 fluorescent cells per optical field)
same,expression of Human albumin,Synovial cells (SynCs),+++ (+++ = 10-20 fluorescent cells per optical field)
same,expression of alpha-fetoprotein,Synovial cells (SynCs),+ (+ = 1-5 fluorescent cells per optical field)
same,expression of c-KIT,Synovial cells (SynCs),+ (+ = 1-5 fluorescent cells per optical field)
same,expression of CD29,[2],+ (+ = 1-5 fluorescent cells per optical field)
same,expression of CD71,[2],++ (++ = 6-10 fluorescent cells per optical field)
same,expression of CD90,[2],+ (+ = 1-5 fluorescent cells per optical field)
same,expression of CD105,[2],+ (+ = 1-5 fluorescent cells per optical field)
same,expression of Human albumin,[2],++ (++ = 6-10 fluorescent cells per optical field)
same,expression of alpha-fetoprotein,[2],+ (+ = 1-5 fluorescent cells per optical field)
same,expression of c-KIT,[2],+ (+ = 1-5 fluorescent cells per optical field)
